Experimental data reported in patent US20260373165A1, “PHARMACEUTICAL COMBINATIONS AND COMPOSITIONS, AND METHODS OF USE THEREOF” (SHENZHEN HIGHTIDE BIOPHARMACEUTICAL LTD., priority 2022, published 2026).
“Also recorded” adds a separate entry of the source.

Experiments:
Format in all cases: in vivo, mouse (C57BL/6J male, 60% HFD DIO)
[1] = Example 2: lean mass by MRI on day 23
Text: (§1) After 5-6-week-old C57BL/6J male mice were acclimatized for 1 week, the weight of each mouse was weighed, and the mice were randomly divided into a control group and a model group by taking the weight as a main index, where 12 mice in the control group were fed with common feed (CD), and the mice in the remaining model group were fed with 60% high-fat feed (60% HFD) for 10-12 weeks to construct a DIO obesity model, with the average body weight being not less than 40 g. The mice fed with 60% HFD were grabbed and acclimatized with a solvent for 3 days, where the acclimatization with a solvent was performed by oral gavage of 0.5% CMC-Na, once daily.
(§2) The food intake, the body weight, the body fat ratio, and the insulin level of the mice were respectively measured, followed by fasting blood glucose level, and the mice were randomly grouped according to Table 12 by taking the body weight as an index, and the remaining ungrouped mice were euthanized. After grouping, each group of mice was administered according to Table 12, the day of administration was defined as DO, and the administration volume of each drug was determined based on the results obtained by the calculation of 5 μL/g× mouse body weight (g).
(§3) For the combined administration group, the administration sequence and the administration time were kept consistent at each administration. The mice were continuously fed with high-fat feed during the administration period until the administration was finished. During administration, 1 food intake was measured per week (difference in feed weights at an interval of 24 h was measured); each group of mice was weighed once daily; blood was collected from the tail tip on day 16 and day 30, respectively, so as to measure fasting blood glucose levels once (blood was collected after fasting from 9:00 am to 3:[…]); on day 24 of administration (D23), the body fat ratio and the lean mass of each group of mice were measured by MRI (the measurement period was kept consistent with that before grouping); after 25 days of administration intervention (day 24), each group of mice was fasted for 6 h and subjected to OGTT (0 min, 15 min, 30 min, 60 min, 90 min, 120 min) to detect their blood glucose levels; after 29 days of administration intervention (day 28), each group of mice was fasted for 6 h and subjected to OGTT (0 min, 15 min, 30 min, 60 min, 90 min, 120 min), and meanwhile subjected to blood sampling via submaxillary vein (0 min, 15 min, 30 min, about 30 μL of blood sampled each time), and then the blood plasma was separated for detecting the insulin level by ELISA, where the separated blood plasma was more than 10 μL; the next day (D30) at the end of administration was set as the test endpoint, and the mice were fasted for 6 h in the morning and subjected to fasting blood glucose level measurement; subsequently, the mice were euthanized with CO2, blood was collected from the heart of each mouse for analysis, and each group of mice was dissected; the liver and subcutaneous, epididymal and mesenteric fat was collected, photographed and weighed, respectively.
The body weight, the lean mass and the lean ratio of each animal in groups G1 to G8 were measured on day 23 and averaged for each group, and the results are shown in Table 16 below, and FIGS. 23 and 24.

[2] = Example 2: body fat mass by MRI on day 23
Text: as §1, §2, §3
The body weight, the body fat mass and the body fat ratio of each animal in groups G1 to G8 were measured on day 23 and averaged for each group, and the results are shown in Table 15 below, and FIGS. 21 and 22.

[3] = Example 2: body weight and body weight change rate, combined administration of HTD1801 and dapagliflozin or empagliflozin in DIO obesity model; conditions: HTD1801 250 mpk, dapagliflozin 10 mpk, empagliflozin 15 mpk p.o. QD, semaglutide 10 nmol/kg s.c. Q3D
Text: as §1, §2, §3

[4] = mean, day 23, HTD1801 250 mpk, dapagliflozin 10 mpk, empagliflozin 15 mpk p.o. QD

OC[C@H]1O[C@@H](c2ccc(Cl)c(Cc3ccc(O[C@H]4CCOC4)cc3)c2)[C@H](O)[C@@H](O)[C@@H]1O [Empagliflozin, empagliflozin]
lean ratio (in words) ([1]; day 23, relative to model control group G2): slightly decreased | Body weight ([1]; mean, day 23 (Table 16), HTD1801 250 mpk, dapagliflozin 10 mpk, empagliflozin 15 mpk p.o. QD): 46.8 g | Lean (lean mass) [1, 4]: 4.2 g | Lean ratio [1, 4]: 9.1% | body fat mass and body fat ratio (in words) ([2]; day 23, relative to control group G2): increased | Body weight ([2]; mean, day 23 (Table 15), HTD1801 250 mpk, dapagliflozin 10 mpk, empagliflozin 15 mpk p.o. QD): 46.8 g | Body fat ratio [2, 4]: 49.3% | Fat (body fat mass) [2, 4]: 23.0 g | body weight change / weight loss effect (in words) [3]: basically kept unchanged; also recorded: could not achieve the weight loss effect | Body weight (mean) ([3]; day 0 (baseline)): 46.2 g | Body weight change rate ([3]; day 0 (baseline)): 0.0% | Body weight (mean) ([3]; day 1): 46.3 g | Body weight change rate ([3]; day 1): 0.4% | Body weight (mean) ([3]; day 2): 46.1 g | Body weight change rate ([3]; day 2): −0.2% | Body weight (mean) ([3]; day 3): 46.0 g | Body weight change rate ([3]; day 3): −0.3% | Body weight (mean) ([3]; day 4): 46.0 g | Body weight change rate ([3]; day 4): −0.5% | Body weight (mean) ([3]; day 5): 45.6 g | Body weight change rate ([3]; day 5): −1.3% | Body weight (mean) ([3]; day 6): 45.8 g | Body weight change rate ([3]; day 6): −0.8% | Body weight (mean) ([3]; day 7): 46.0 g | Body weight change rate ([3]; day 7): −0.4% | Body weight (mean) ([3]; day 8): 45.6 g | Body weight change rate ([3]; day 8): −1.2% | Body weight (mean) ([3]; day 9): 45.5 g | Body weight change rate ([3]; day 9): −1.5% | Body weight (mean) ([3]; day 10): 45.4 g | Body weight change rate ([3]; day 10): −1.7% | Body weight (mean) ([3]; day 11): 45.6 g | Body weight change rate ([3]; day 11): −1.2% | Body weight (mean) ([3]; day 12): 45.5 g | Body weight change rate ([3]; day 12): −1.6% | Body weight (mean) ([3]; day 13): 45.3 g | Body weight change rate ([3]; day 13): −1.9% | Body weight (mean) ([3]; day 14): 45.6 g | Body weight change rate ([3]; day 14): −1.3% | Body weight (mean) ([3]; day 15): 45.6 g | Body weight change rate ([3]; day 15): −1.4% | Body weight (mean) ([3]; day 16): 45.3 g | Body weight change rate ([3]; day 16): −1.9% | Body weight (mean) ([3]; day 17): 45.7 g | Body weight change rate ([3]; day 17): −1.1% | Body weight (mean) ([3]; day 18): 45.7 g | Body weight change rate ([3]; day 18): −1.0% | Body weight (mean) ([3]; day 19): 45.7 g | Body weight change rate ([3]; day 19): −1.2% | Body weight (mean) ([3]; day 20): 45.8 g | Body weight change rate ([3]; day 20): −0.8% | Body weight (mean) ([3]; day 21): 46.0 g | Body weight change rate ([3]; day 21): −0.4% | Body weight (mean) ([3]; day 22): 46.2 g | Body weight change rate ([3]; day 22): −0.1% | Body weight (mean) ([3]; day 23): 46.1 g | Body weight change rate ([3]; day 23): −0.1% | Body weight (mean) ([3]; day 24): 45.7 g | Body weight change rate ([3]; day 24): −1.1% | Body weight (mean) ([3]; day 25): 46.0 g | Body weight change rate ([3]; day 25): −0.4% | Body weight (mean) ([3]; day 26): 46.6 g | Body weight change rate ([3]; day 26): 0.9% | Body weight (mean) ([3]; day 27): 46.5 g | Body weight change rate ([3]; day 27): 0.7% | Body weight (mean) ([3]; day 28): 46.0 g | Body weight change rate ([3]; day 28): −0.4% | Body weight (mean) ([3]; day 29): 46.5 g | Body weight change rate ([3]; day 29): 0.8%
